# From US20170348371A1, “THE ANTI CANCEROUS, ANTIPARASITE (TOXOPLASMA GONDII (PROTOZOON) AND ANTIMICROBIAL EFFECT AND DOSAGE OF NIGELLA (NIGELLA SATIVA) EXTRACT” (priority 2014, published 2017)
# What was measured:
# Hep2 cells = test: MTT cytotoxicity test on Hep2 cell line; type: cell-based, Human
# Description: The oils of the plant as an extract are used which have been obtained by cold pressing and it has been ensured that the extract is fresh and pure. The extracts that have been obtained through the whole study have been initially diluted with solvents, filtered and sterilized. […] The maximum dose and dilution sub doses that have been determined accordingly have been repeated controlled groups. Different amounts of Hep2 cells have been tested in flat bottomed 96 well plates for cell culture during the first stage of the study and it has been determined that […] cells were optimal for the monolayer layer of 2×10^4 cell per well. A pure oil of Nigella plant extract, which has been tested inside various solvents in terms of penetration into cells and homogenous distribution. MTT tests have been carried out relating to Hep2 cells in solvents too. DMSO was selected from solvents such as DMSO and Methanol and was used and cytopathic doses have not been exceeded during the whole study (FIG. 2). Essential oil has been obtained from Nigella and emulsions have been obtained from fixed oil plants (Ginger etc.) and compounds.
# Toxoplasma gondii = test: ELISA test of efficiency against Toxoplasma gondii in infected Hep2 cells; type: cell-based; conditions: for ELISA OD value according to positive control (reproduction) / ELISA value in comparison to PK: 48 hours; for ELISA value: 72 hour plates
# Description: An ELISA (Enzyme-Linked Immunosorbent Assay) test (FIG. 4) has been planned and conducted in order to determine efficiency against Toxoplasma gondii.
# The ELISA test has been carried out on flat bottom well plates having 96 wells. First of all the base of the plates have been covered with a suitable amount of Hep2 cells. […] Following this all wells have been processed again with different doses (determined with MTT) of Pyrimtheamine, Sulphadiazine and Nigella Sativa extract, prepared with DMSO.
# The result was read by the ELISA reader device in 30 minutes
structure (smiles),measurement,setting,value
CCc1nc(N)nc(N)c1-c1ccc(Cl)cc1 [Pyrimethamine],OD value in MTT test,Hep2 cells; 1 μg/ml,"1,228"
same,OD value in MTT test,Hep2 cells; 2 μg/ml,"1,198"
same,OD value in MTT test,Hep2 cells; 4 μg/ml,0.623
same,OD value in MTT test,Hep2 cells; 8 μg/ml,0.310
same,OD value in MTT test,Hep2 cells; 16 μg/ml,0.209
same,OD value in MTT test,Hep2 cells; 32 μg/ml,0.097
same,ELISA OD value according to positive control (reproduction),Toxoplasma gondii; 0.5 μg/ml,75%
same,ELISA OD value according to positive control (reproduction),Toxoplasma gondii; 1 μg/ml (printed '2.1 and 0.5 μg/ml doses'),54%
same,ELISA OD value according to positive control (reproduction),Toxoplasma gondii; 2 μg/ml (printed '2.1 and 0.5 μg/ml doses'),56%
same,ELISA OD value according to positive control (reproduction),Toxoplasma gondii; 4 μg/ml,45%
same,ELISA value,Toxoplasma gondii; 4 μg/ml (1st dose),48%
same,ELISA value,Toxoplasma gondii; 2nd dose of series starting from 4 μg/ml,29%
same,ELISA value,Toxoplasma gondii; 3rd dose of series starting from 4 μg/ml,36%
same,ELISA value,Toxoplasma gondii; 4th dose of series starting from 4 μg/ml,41%
same,ELISA value,Toxoplasma gondii; 5th dose of series starting from 4 μg/ml,32%
same,ELISA value,Toxoplasma gondii; 6th dose of series starting from 4 μg/ml,27%
same,ELISA value,Toxoplasma gondii; 7th dose of series starting from 4 μg/ml,27%
same,ELISA value,Toxoplasma gondii; 8th dose of series starting from 4 μg/ml,73%
Nc1ccc(S(=O)(=O)Nc2ncccn2)cc1 [Sulphadiazine],OD value in MTT test,Hep2 cells; 50 μg/ml,"1,002"
same,OD value in MTT test,Hep2 cells; 100 μg/ml,0.827
same,OD value in MTT test,Hep2 cells; 200 μg/ml,0.254
same,ELISA value in comparison to PK,Toxoplasma gondii; 25 μg/ml,80%
same,ELISA value in comparison to PK,Toxoplasma gondii; 50 μg/ml,97%
same,ELISA value in comparison to PK,Toxoplasma gondii; 4th dose of series from 100 μg/ml (concentration not given),79%
same,ELISA value in comparison to PK,Toxoplasma gondii; 5th dose of series from 100 μg/ml (concentration not given),61%
same,ELISA value in comparison to PK,Toxoplasma gondii; 6th dose of series from 100 μg/ml (concentration not given),95%
same,ELISA value in comparison to PK,Toxoplasma gondii; 7th dose of series from 100 μg/ml (concentration not given),84%
same,ELISA value in comparison to PK,Toxoplasma gondii; 8th dose of series from 100 μg/ml (concentration not given),97%
same,ELISA value in comparison to PK,Toxoplasma gondii; concentration of 100 (unit not given),51%
same,ELISA value,Toxoplasma gondii; 100 μg/ml (1st dose),52%
same,ELISA value,Toxoplasma gondii; 2nd dose of series starting from 100 μg/ml,57%
same,ELISA value,Toxoplasma gondii; 3rd dose of series starting from 100 μg/ml,52%
same,ELISA value,Toxoplasma gondii; 4th dose of series starting from 100 μg/ml,77%
same,ELISA value,Toxoplasma gondii; 5th dose of series starting from 100 μg/ml,75%
same,ELISA value,Toxoplasma gondii; 6th dose of series starting from 100 μg/ml,55%
same,ELISA value,Toxoplasma gondii; 7th dose of series starting from 100 μg/ml,52%
same,ELISA value,Toxoplasma gondii; 8th dose of series starting from 100 μg/ml,84%
